Reference: US20050106305A1, “Beverage compositions comprising monatin and methods of making same” (Cargill, Inc., priority 2003, published 2005)
Where a SMILES comes first, the peptide text is derived from it.

Key:
[1] = Stability of monatin at 80° C. and neutral pH, LC-MS; assay type: physicochemical; settings: 75 ppm
Procedure: A 100 milliliter solution of 75 ppm monatin at pH 7 was used as a stock solution. The synthetic monatin sample contained approximately 96% of the 2R,4R/2S,4S enantiomeric pair and 4% of the 2R,4S/2S,4R enantiomeric pair. Samples were incubated at 80° C. and pH 7 for the duration of the experiment and samples were withdrawn at 0, 1, 2, 3, 4 hours and 1, 2, 4, 7, 14, 21 and 35 days. All experimental conditions were run in duplicate.
Separation and Quantification Using LC-MS Using Reverse Phase Chromatography—A response curve was established for both detected diastereomer peaks of the synthetic monatin. A range of 5-150 ppm was bracketed with the synthetic monatin standard dissolved in DI water. Separation of the two diastereomer peaks was accomplished using a 3.9×150 mm Novapak C18 (Waters Corporation) HPLC column. Ultraviolet-Visible (UV) and Mass Spectrometer (MS) detectors were used in series for detection and quantitation. Monatin and its lactone peak each have a UVmax at 279 nm that aided in precise detection. Quantification was done by acquiring Selected Ion Monitoring (SIM) scan of 293.3 m/z and 275.3 m/z in positive-ion electrospray mode.

[2] = Quantitative synergy of monatin with other sweeteners; assay type: in vivo
[3] = Sensory evaluation of sweeteners in coffee and iced tea; assay type: in vivo; settings: Coffee, 200 mL serving; aspartame 250 ppm, sucralose 82 ppm, R,R monatin 25 ppm + maltodextrin or erythritol (1 g, 0.5%)
Procedure: Monatin sweetener formulations, comprising R,R monatin or R,R monatin/erythritol combinations, were assessed relative to other known sweeteners (aspartame and sucralose) in coffee and iced tea. The key sensory parameters assessed included sweetness quality, aftertaste, bitter taste and its aftertaste. Qualitative evaluation was carried out.
Standard coffee was used in which to evaluate sweetener performance (Table 17).
Sweeteners were added to coffee at the following concentrations:
An ice tea formulation was developed to evaluate sweetener performance (Table 18).
Sweeteners were added to tea at the following concentrations:
The evaluation of these coffee and tea drinks was carried out by a panel (n=6) of experienced sensory evaluators who evaluated the coffee products on one tasting occasion and the tea products on a subsequent occasion.

SMILES	change in concentration of monatin or lactones thereof ([1]; 80° C. and pH 7, up to 35 days)	degree of degradation of monatin ([1]; 80° C., pH 7, after 7-35 days)	quantitative synergy with aspartame, saccharin, acesulfame-K, sucralose, or carbohydrate sweeteners ([2]; blends)	quantitative synergy with cyclamates ([2]; blends with cyclamates)	Comments (sensory evaluation) [3]
NC(CC(O)(Cc1c[nH]c2ccccc12)C(=O)O)C(=O)O (racemic) [Monatin, 2-hydroxy-2-(indol-3-ylmethyl)-4-aminoglutaric acid]	no change in concentration	insignificant	no significant quantitative synergy	quantitatively synergistic	–
COC(=O)[C@H](Cc1ccccc1)NC(=O)[C@@H](N)CC(=O)O [Aspartame, aspartame] (H-Asp-Phe-OMe)	–	–	–	–	Balanced sweetness profile. Very low level
